Assay results from article PMC7736581, “Activation of the IRE1 RNase through remodeling of the kinase front pocket by ATP-competitive ligands” (Nature Communications, 2020).

Legend:
Assay in all cases: biochemical
Set-up in all cases: Invitrogen kinase panel: Z'Lyte activity (ATP at Km) or LanthaScreen competitive ATP-site binding, percent inhibition
Bmx = Bmx (Homo sapiens, UniProt P51813)
CAMKK2 = CAMKK2 (Homo sapiens, UniProt Q96RR4)
CDK9/cyclinT1 = CDK9/cyclinT1 (Homo sapiens, UniProt P50750)
CK1_alpha1 = target: T1, CK1_alpha1 (Homo sapiens, UniProt P48729)
T1 construct: gene CSNK1A1
T1 sequence (P48729 whole entry): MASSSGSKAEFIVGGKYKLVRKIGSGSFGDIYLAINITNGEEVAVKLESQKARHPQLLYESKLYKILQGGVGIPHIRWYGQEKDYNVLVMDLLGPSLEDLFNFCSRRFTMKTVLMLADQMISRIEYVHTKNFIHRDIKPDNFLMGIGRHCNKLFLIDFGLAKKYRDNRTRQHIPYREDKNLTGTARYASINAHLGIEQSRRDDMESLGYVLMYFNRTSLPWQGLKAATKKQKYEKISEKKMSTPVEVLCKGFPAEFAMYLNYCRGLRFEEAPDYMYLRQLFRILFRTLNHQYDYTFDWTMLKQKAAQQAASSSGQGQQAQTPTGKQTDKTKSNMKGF

CK1_gamma2 = target: T2, CK1_gamma2 (Homo sapiens, UniProt P78368)
T2 construct: gene CSNK1G2

CLK1 = CLK1 (Homo sapiens, UniProt P49759)
CLK2 = CLK2 (Homo sapiens, UniProt P49760)
CSK = CSK (Homo sapiens, UniProt P41240)
DMPK = DMPK (Homo sapiens, UniProt Q09013)
DRAK1 = target: T3, DRAK1 (Homo sapiens, UniProt Q9UEE5)
T3 construct: gene STK17A

DYRK4 = DYRK4 (Homo sapiens, UniProt Q9NR20)
Flt4 = Flt4 (Homo sapiens, UniProt P35916)
GRK5 = GRK5 (Homo sapiens, UniProt P34947)
Chain of GRK5 (P34947 whole entry): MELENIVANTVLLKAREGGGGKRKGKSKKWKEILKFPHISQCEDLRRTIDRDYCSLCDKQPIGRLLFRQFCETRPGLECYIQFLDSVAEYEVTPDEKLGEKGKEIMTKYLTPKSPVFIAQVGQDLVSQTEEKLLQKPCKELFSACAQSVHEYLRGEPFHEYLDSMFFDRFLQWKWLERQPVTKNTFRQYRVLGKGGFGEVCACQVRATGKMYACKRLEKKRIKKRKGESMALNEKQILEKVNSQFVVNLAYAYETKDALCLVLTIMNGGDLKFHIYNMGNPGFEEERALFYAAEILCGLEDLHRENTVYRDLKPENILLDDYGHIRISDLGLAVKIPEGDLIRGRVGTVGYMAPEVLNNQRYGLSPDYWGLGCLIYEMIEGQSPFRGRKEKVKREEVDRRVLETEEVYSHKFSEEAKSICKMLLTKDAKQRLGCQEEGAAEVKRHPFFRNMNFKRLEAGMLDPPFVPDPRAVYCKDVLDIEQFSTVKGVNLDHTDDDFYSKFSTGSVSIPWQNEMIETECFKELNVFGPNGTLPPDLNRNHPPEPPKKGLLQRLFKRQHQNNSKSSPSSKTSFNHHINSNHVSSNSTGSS

GSK3_alpha = target: T4, GSK3_alpha (Homo sapiens, UniProt P49840)
T4 construct: gene GSK3A
T4 sequence (P49840 whole entry): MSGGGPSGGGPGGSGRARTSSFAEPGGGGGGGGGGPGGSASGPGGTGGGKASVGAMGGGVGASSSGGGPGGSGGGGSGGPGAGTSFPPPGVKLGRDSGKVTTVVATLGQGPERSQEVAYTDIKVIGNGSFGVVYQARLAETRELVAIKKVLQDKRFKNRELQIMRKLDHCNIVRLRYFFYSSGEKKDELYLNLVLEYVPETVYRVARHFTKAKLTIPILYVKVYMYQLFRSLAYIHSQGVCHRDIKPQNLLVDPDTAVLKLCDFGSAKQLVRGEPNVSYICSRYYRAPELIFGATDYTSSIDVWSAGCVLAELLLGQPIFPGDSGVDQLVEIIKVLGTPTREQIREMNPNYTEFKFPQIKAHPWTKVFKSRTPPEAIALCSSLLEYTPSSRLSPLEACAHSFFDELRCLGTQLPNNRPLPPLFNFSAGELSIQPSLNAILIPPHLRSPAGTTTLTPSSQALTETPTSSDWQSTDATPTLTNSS

MSK1 = target: T5, MSK1 (Homo sapiens, UniProt O75582)
T5 construct: gene RPS6KA5

MST2 = target: T6, MST2 (Homo sapiens, UniProt Q13188)
T6 construct: gene STK3

MST4 = target: T7, MST4 (Homo sapiens, UniProt Q9P289)
T7 construct: gene STK26

MYLK(smMLCK) = target: T8, MYLK(smMLCK) (Homo sapiens, UniProt Q15746)
T8 construct: smMLCK
T8 sequence (Q15746 whole entry): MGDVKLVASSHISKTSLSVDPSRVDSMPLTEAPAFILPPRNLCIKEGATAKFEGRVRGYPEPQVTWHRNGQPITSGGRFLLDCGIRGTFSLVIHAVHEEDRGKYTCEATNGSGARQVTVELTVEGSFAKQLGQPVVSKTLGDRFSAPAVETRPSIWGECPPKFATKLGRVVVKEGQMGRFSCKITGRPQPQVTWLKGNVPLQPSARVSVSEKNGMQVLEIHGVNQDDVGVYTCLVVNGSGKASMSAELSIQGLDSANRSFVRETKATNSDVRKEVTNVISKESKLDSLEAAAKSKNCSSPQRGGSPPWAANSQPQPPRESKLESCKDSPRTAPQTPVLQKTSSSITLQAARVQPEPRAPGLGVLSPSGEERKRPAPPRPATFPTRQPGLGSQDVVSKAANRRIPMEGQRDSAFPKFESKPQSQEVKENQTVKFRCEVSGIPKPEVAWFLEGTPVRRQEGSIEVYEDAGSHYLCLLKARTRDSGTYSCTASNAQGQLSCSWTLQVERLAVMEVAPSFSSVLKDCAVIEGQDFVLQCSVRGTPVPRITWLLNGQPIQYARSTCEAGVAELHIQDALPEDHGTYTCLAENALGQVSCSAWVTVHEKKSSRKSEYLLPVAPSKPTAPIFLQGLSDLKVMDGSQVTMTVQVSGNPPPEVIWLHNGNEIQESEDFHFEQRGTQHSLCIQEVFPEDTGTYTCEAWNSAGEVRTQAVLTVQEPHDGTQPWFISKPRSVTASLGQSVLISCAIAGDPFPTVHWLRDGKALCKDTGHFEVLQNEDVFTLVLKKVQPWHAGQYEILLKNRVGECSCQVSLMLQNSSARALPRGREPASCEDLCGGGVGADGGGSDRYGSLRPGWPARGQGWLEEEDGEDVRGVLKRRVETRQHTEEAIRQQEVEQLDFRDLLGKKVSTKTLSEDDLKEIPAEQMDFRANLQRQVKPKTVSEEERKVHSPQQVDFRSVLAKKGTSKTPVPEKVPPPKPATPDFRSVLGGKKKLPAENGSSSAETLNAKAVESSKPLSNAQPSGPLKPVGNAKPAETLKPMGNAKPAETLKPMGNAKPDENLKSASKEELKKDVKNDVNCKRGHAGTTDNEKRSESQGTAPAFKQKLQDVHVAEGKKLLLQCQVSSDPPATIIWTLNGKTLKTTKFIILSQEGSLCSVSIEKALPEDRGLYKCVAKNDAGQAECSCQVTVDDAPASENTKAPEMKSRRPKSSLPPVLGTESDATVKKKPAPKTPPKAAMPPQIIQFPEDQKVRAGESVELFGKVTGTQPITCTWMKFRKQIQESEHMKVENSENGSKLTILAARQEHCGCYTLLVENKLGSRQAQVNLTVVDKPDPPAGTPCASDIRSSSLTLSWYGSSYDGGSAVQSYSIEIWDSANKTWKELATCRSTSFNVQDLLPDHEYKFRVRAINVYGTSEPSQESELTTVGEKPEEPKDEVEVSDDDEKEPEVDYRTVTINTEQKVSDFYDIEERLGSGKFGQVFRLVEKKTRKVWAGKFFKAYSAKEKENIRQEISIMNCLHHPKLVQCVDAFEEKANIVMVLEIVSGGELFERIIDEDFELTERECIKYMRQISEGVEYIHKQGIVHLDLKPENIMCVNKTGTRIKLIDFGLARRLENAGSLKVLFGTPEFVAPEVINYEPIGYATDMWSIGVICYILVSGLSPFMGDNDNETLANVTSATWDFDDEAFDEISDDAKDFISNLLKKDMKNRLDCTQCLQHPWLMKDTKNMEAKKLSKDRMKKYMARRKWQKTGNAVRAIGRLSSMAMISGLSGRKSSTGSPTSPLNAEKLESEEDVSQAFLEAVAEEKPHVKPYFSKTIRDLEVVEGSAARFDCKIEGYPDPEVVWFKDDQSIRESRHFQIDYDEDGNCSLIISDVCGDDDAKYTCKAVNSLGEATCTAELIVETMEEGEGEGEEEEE

NEK9 = NEK9 (Homo sapiens, UniProt Q8TD19)
PAK6 = PAK6 (Homo sapiens, UniProt Q9NQU5)
PASK = PASK (Homo sapiens, UniProt Q96RG2)
PLK1 = PLK1 (Homo sapiens, UniProt P53350)
Ros = target: T9, Ros (Homo sapiens, UniProt P08922)
T9 construct: gene ROS1

SGK3 = SGK3 (Homo sapiens, UniProt Q96BR1)
Chain of SGK3 (Q96BR1 whole entry): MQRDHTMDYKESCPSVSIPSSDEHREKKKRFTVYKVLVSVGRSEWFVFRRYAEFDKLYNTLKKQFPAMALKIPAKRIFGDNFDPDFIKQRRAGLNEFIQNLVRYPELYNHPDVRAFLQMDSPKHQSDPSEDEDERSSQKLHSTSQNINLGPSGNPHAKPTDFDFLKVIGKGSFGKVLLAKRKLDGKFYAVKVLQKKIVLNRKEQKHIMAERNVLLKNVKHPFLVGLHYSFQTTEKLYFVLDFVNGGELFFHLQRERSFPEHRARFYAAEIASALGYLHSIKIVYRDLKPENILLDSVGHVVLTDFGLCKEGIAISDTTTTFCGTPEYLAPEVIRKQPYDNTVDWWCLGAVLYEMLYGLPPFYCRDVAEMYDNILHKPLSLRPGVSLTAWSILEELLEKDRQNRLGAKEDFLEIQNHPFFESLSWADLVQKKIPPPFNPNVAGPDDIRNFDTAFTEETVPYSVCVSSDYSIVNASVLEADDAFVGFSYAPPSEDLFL

TSSK1 = target: T10, TSSK1 (Homo sapiens, UniProt Q9BXA7)
T10 construct: gene TSSK1B
T10 sequence (Q9BXA7 whole entry): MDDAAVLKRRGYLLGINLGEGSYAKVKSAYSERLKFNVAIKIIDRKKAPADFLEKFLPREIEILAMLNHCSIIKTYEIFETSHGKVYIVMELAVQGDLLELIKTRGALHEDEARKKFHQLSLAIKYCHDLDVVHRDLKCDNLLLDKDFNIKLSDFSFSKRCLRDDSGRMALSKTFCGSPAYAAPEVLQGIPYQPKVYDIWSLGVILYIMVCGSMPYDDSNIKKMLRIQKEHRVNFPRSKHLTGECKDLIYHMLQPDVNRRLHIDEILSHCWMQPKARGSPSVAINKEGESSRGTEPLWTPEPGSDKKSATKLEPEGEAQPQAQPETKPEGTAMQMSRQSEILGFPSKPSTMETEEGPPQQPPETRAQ

Chain of Bmx (P51813 whole entry): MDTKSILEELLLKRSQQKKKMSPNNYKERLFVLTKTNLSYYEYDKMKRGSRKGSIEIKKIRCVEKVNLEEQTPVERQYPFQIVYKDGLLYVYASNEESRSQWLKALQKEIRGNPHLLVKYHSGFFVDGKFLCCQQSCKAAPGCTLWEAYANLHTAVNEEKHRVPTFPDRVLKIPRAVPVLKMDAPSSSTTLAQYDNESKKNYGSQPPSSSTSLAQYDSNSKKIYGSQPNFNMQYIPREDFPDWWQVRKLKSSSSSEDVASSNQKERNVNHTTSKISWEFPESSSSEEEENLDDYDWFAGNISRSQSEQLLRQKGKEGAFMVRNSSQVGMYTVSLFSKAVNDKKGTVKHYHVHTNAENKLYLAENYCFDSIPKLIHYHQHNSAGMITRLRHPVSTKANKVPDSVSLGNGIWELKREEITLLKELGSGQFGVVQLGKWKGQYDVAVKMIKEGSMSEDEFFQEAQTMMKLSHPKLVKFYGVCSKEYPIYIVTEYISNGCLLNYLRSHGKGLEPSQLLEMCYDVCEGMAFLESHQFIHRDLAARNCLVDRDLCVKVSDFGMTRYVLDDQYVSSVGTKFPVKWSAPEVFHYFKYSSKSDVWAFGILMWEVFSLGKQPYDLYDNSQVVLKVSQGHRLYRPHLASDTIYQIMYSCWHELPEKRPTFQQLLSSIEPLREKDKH

Row | SMILES | inhibition at 1 µM (Bmx) [%] | inhibition at 1 µM (CAMKK2) [%] | inhibition at 1 µM (CDK9/cyclinT1) [%] | inhibition at 1 µM (CK1_alpha1) [%] | inhibition at 1 µM (CK1_gamma2) [%] | inhibition at 1 µM (CLK1) [%] | inhibition at 1 µM (CLK2) [%] | inhibition at 1 µM (CSK) [%] | inhibition at 1 µM (DMPK) [%] | inhibition at 1 µM (DRAK1) [%] | inhibition at 1 µM (DYRK4) [%] | inhibition at 1 µM (Flt4) [%] | inhibition at 1 µM (GRK5) [%] | inhibition at 1 µM (GSK3_alpha) [%] | inhibition at 1 µM (MSK1) [%] | inhibition at 1 µM (MST2) [%] | inhibition at 1 µM (MST4) [%] | inhibition at 1 µM (MYLK(smMLCK)) [%] | inhibition at 1 µM (NEK9) [%] | inhibition at 1 µM (PAK6) [%] | other results
1 | CC#CC(=O)Nc1cccc2c(Oc3ncccc3-c3ccnc(N[C@H]4CCCNC4)n3)c(C)ccc12 [G-7658] | -4.5 | -0.5 | 35 | -0.5 | -4.5 | 5.5 | 23 | 5.5 | 1.5 | -4 | 1 | 6.5 | -3 | 10.5 | -6 | 2.5 | -3.5 | 6 | -0.5 | 11 | inhibition at 1 µM (PASK): 9.5%; inhibition at 1 µM (PLK1): 6%; inhibition at 1 µM (Ros): 8%; inhibition at 1 µM (SGK3): -2%; inhibition at 1 µM (TSSK1): 7.5%
2 | CCOC(=O)Nc1cccc2c(Oc3ncccc3-c3ccnc(N[C@H]4CCCNC4)n3)c(C)ccc12 [G-1749] | -4 | -0.5 | 29 | -1.5 | -4.5 | 6 | 18.5 | 6 | 0 | 0 | 2.5 | 5.5 | -3 | 2.5 | -3 | 5.5 | -12.5 | 1.5 | -3 | 12.5 | inhibition at 1 µM (PASK): 4.5%; inhibition at 1 µM (PLK1): 5%; inhibition at 1 µM (Ros): 7%; inhibition at 1 µM (SGK3): -5.5%; inhibition at 1 µM (TSSK1): 8.5%
